Data taken from patent US20070141072A1, “Use of multifunctional transcription factor yin-yang-1 and variants thereof for treating illnesses, especially type 1 diabetes” (ERNST-MORITZ-ARNDT-UNIVERSITAT GREIFSWALD, priority 2002, published 2007).

Test system: calbindin-D28k
Experiment: Calbindin-D28k protein expression in isolated islets of Langerhans, Western blot
Assay type: cell-based, rat
Conditions: increasing calcium concentration in the medium
Excerpt: There were however significant differences in protein expression using Western blot analysis. The calcium-binding protein, calbindin-D28k, was already twice as high in BB.6S rat islets under basal conditions as that of BB/OK rats. […] Calbindin-D28k is a cytosolic calcium-binding protein, which is primarily expressed in the kidney, but also in the pancreas and brain, and which can prevent apoptotic (gene controlled) cell death (41, 42). In functional terms it is supposed that calbindin-D28k is involved in regulation of calcium reabsorption.
Calbindin-D28k protein expression using Western blot analysis under basal conditions and with increasing calcium concentration in the medium.

[Ca+2] [calcium]
protein expression of calbindin-D28k (BB.6S islets): clearly increased | protein expression of calbindin-D28k (BB/OK islets): almost uninfluenced
